The source of these data is patent publication US12312355B2, “1H-[1, 2, 3]triazolo[4, 5-h] quinazoline compounds acting as protein kinase inhibitors” (CHENGDU CYNOGEN BIO-PHARMACEUTICAL TECHNOLOGY CO., LTD., priority 2019, dated 2025).

Format in all cases: biochemical
Holding throughout (conditions): class symbols

The target of one test is CDK4/cyclin D3 (Homo sapiens (Human), UniProt P11802). In words: Kinase activity assay, Caliper Mobility Shift Assay, CDK4/cyclin D3. How it is done:
The inhibitory effect of the compound on the kinase CDK4/cyclin D3 was tested by the Caliper Mobility Shift Assay method. The final test concentration of the compound was 10 concentrations, which started from […] and were obtained by three-fold dilution. 5 μL of 5-fold final concentration compound and 10 μL of CDK4/Cyclin D3 kinase solution with final concentration of 10 nM were added to the 384-well reaction plate respectively, and pre incubated at room temperature for 10 minutes (the negative control well contained 10 μL kinase buffer and 5 μL 5% DMSO; the positive control well contained 10 μL kinase solution and 5 μL 5% DMSO). The mixture of 10 μL ATP with a final concentration of 250 μM and the corresponding substrate peptide was added to initiate the reaction, and the mixture was reacted at room temperature for 150 minutes. 30 μL of stop test solution containing EDTA was added to stop the kinase reaction. Conversion rate was read by Caliper EZ Reader. Conversion inhibition rate %=(average conversion rate of positive control %−sample conversion rate %)/(average conversion rate of positive control %−average conversion rate of negative control %). Wherein: the negative control well represents conversion rate reading of wells without enzyme activity; the positive control well represents conversion rate reading of wells without compound inhibition. The log value of concentration was taken as the X-axis and the percentage inhibition rate was the Y-axis. […] Calculation formula: Y=Bottom+(Top−Bottom)/(1+10^((Log IC50−X)*HillSlope)).

The next test concerns the target CDK6/cyclin D3 (Homo sapiens (Human), UniProt Q00534). Briefly: Kinase activity assay, Caliper Mobility Shift Assay, CDK6/cyclin D3.
The target in a further test is CDK2/cyclin A2 (Homo sapiens (Human), UniProt P24941). In words: Kinase activity assay, Caliper Mobility Shift Assay, CDK2/cyclin A2. How it is done: The inhibitory effect of the compound on the kinase CDK4/cyclin D3 was tested by the Caliper Mobility Shift Assay method. The final test concentration of the compound was 10 concentrations, which started from […] and were obtained by three-fold dilution. 5 μL of 5-fold final concentration compound and 10 μL of CDK4/Cyclin D3 kinase solution with final concentration of 10 nM were added to the 384-well reaction plate respectively, and pre incubated at room temperature for 10 minutes (the negative control well contained 10 μL kinase buffer and 5 μL 5% DMSO; the positive control well contained 10 μL kinase solution and 5 μL 5% DMSO). The mixture of 10 μL ATP with a final concentration of 250 μM and the corresponding substrate peptide was added to initiate the reaction, and the mixture was reacted at room temperature for 150 minutes. 30 μL of stop test solution containing EDTA was added to stop the kinase reaction. Conversion rate was read by Caliper EZ Reader. Conversion inhibition rate %=(average conversion rate of positive control %−sample conversion rate %)/(average conversion rate of positive control %−average conversion rate of negative control %). Wherein: the negative control well represents conversion rate reading of wells without enzyme activity; the positive control well represents conversion rate reading of wells without compound inhibition. The log value of concentration was taken as the X-axis and the percentage inhibition rate was the Y-axis. The dose-effect curve was fitted by log(inhibitor) vs. response—Variable slope of the analysis software GraphPad Prism 5, and the IC50 value of each compound on the enzyme activity was obtained. Calculation formula: Y=Bottom+(Top−Bottom)/(1+10^((Log IC50−X)*HillSlope)).
The IC50 values of the compounds of the present disclosure for CDK6/cyclin D3 and CDK2/cyclin A2 were tested in a similar manner.

Where a name gives a salt, the structure may show the parent alone.

Chain of CDK4/cyclin D3 (P11802 whole entry, species assumed): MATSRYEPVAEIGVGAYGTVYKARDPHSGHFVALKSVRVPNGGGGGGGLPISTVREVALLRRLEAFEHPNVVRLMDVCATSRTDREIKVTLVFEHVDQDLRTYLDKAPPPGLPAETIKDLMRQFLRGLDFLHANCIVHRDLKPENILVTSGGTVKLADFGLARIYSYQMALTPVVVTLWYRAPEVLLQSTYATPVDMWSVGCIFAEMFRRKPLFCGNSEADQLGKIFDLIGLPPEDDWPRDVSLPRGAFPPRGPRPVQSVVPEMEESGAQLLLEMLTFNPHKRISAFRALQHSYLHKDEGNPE
Chain of CDK4/cyclin D3 (P30281 whole entry partner, species assumed): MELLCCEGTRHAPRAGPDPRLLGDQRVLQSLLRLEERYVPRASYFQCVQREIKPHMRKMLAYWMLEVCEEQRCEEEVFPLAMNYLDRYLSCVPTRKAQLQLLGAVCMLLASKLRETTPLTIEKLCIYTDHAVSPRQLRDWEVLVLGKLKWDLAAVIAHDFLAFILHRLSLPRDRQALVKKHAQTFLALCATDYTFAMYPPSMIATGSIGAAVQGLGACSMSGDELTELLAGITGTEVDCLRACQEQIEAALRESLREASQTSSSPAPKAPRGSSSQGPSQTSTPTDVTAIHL
Chain of CDK6/cyclin D3 (Q00534 whole entry, species assumed): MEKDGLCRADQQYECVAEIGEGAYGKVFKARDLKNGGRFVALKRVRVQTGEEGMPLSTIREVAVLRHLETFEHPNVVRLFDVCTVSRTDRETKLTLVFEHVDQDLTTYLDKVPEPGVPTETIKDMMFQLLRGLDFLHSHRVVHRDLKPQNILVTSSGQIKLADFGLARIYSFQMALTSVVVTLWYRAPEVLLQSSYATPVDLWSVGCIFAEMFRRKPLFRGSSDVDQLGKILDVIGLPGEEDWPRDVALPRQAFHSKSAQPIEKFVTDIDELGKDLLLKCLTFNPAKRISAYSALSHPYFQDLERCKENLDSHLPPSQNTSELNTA
Chain of CDK6/cyclin D3 (P30281 whole entry partner, species assumed): as the sequence (P30281 whole entry partner, species assumed) above

As for `CC(C)n1nnc2ccc3cnc(Nc4ccc(N5CCC(CCCO)CC5)cc4)nc3c21` [Compound I-27, 3-(1-(4-((1-isopropyl-1H-[1,2,3]triazolo [4,5-h]quinazolin-8-yl)amino)phenyl)pi-peridin-4-yl)propan-1-ol], the concentration for half-maximal inhibition (IC50) on CDK4/cyclin D3, on CDK6/cyclin D3 and on CDK2/cyclin A2 was 0.05 to 0.1 µM throughout.
In the case of `CC(C)n1nnc2ccc3cnc(Nc4ccc(N5CCOCC5)cc4)nc3c21` [Compound I-26, 1-Isopropyl-N-(4-morpholinophenyl)-1H-[1,2,3]triazolo[4,5-h]quinazolin-8-amine], the IC50 on CDK4/cyclin D3, on CDK6/cyclin D3 and at CDK2/cyclin A2 was < 0.01 µM in each case.
Take `COc1cc(N2CCNCC2)ccc1Nc1ncc2ccc3nnn(C(C)C)c3c2n1` [Compound I-30, 1-Isopropyl-N-(2-methoxy-4-(piperazin-1-yl)phenyl)-1H-[1,2,3]triazolo[4,5-h]quin-azolin-8-amine hydrochloride]: the IC50 at CDK4/cyclin D3, on CDK6/cyclin D3 and on CDK2/cyclin A2 was < 0.01 µM throughout.
In the case of `CC(C)n1nnc2ccc3cnc(Nc4ccc(OCCN(C)C)cc4)nc3c21` [Compound I-38, N-(4-(2-(Dimethylamino)ethoxy)phenyl)-1-isopropyl-1H-[1,2,3]triazolo[4,5-h]quin-azolin-8-amine], the IC50 at CDK4/cyclin D3, on CDK6/cyclin D3 and on CDK2/cyclin A2 was < 0.01 µM throughout.
As to `CC(C)n1nnc2ccc3cnc(Nc4ccc(C(=O)N5CCNCC5)cc4)nc3c21` [Compound I-39, (4-((1-Isopropyl-1H-[1,2,3]triazolo[4,5-h]quinazolin-8-yl)amino)phenyl)(piper-azin-1-yl)methanone hydrochloride], the IC50 on CDK4/cyclin D3, on CDK6/cyclin D3 and at CDK2/cyclin A2 was < 0.01 µM throughout.
On to `CCN1CCN(c2ccc(Nc3ncc4ccc5nnn(C(C)C)c5c4n3)cc2F)CC1` [Compound I-34, N-(4-(4-Ethylpiperazin-1-yl)-3-fluorophe-nyl)-1-isopropyl-1H-[1,2,3]triazolo[4,5-h]quinazolin-8-amine hydrochloride], for which the IC50 on CDK4/cyclin D3, on CDK6/cyclin D3 and on CDK2/cyclin A2 was < 0.01 µM in each case.
As to `CC(C)n1nnc2ccc3cnc(Nc4ccc(N5CCNCC5)c(F)c4)nc3c21` [Compound I-32, N-(3-Fluoro-4-(piperazin-1-yl)phenyl)-1-isopropyl-1H-[1,2,3]triazolo[4,5-h]quin-azolin-8-amine hydrochloride], the IC50 at CDK4/cyclin D3, at CDK6/cyclin D3 and on CDK2/cyclin A2 was < 0.01 µM throughout.
In the case of `CCN1CCN(c2ccc(Nc3ncc4ccc5nnn(C(C)C)c5c4n3)cc2)CC1` [Compound I-25, N-(4-(4-Ethylpiperazin-1-yl)phenyl)-1-iso-propyl-1H-[1,2,3]triazolo[4,5-h]quin-azolin-8-amine], the IC50 at CDK4/cyclin D3, at CDK6/cyclin D3 and on CDK2/cyclin A2 was < 0.01 µM in each case.
On to `CC(C)n1nnc2ccc3cnc(Nc4ccc(C(=O)N5CCN(C)CC5)cc4)nc3c21` [Compound I-40], for which the half-maximal inhibitory concentration (IC50) at CDK4/cyclin D3, at CDK6/cyclin D3 and on CDK2/cyclin A2 was < 0.01 µM in each case.
Regarding `COc1cc(N2CCN(C)CC2)ccc1Nc1ncc2ccc3nnn(C(C)C)c3c2n1` [Compound I-31, 1-Isopropyl-N-(2-methoxy-4-(4-methyl-piperazin-1-yl)phenyl)-1H-[1,2,3]triazo-lo[4,5-h]quinazolin-8-amine], the half-maximal inhibitory concentration (IC50) at CDK4/cyclin D3, on CDK6/cyclin D3 and at CDK2/cyclin A2 was 0.05 to 0.1 µM in each case.
Turning to `CC(C)n1nnc2ccc3cnc(Nc4cccc(S(N)(=O)=O)c4)nc3c21` [Compound I-36, 3-((1-isopropyl-1H-[1,2,3]triazolo[4,5-h]quinazolin-8-yl)amino)benzenesulfonamide hydrochloride], the IC50 on CDK4/cyclin D3, at CDK6/cyclin D3 and at CDK2/cyclin A2 was < 0.01 µM in each case.
As to `CC(C)n1nnc2ccc3cnc(Nc4ccc(N5CCOCC5)cc4F)nc3c21` [Compound I-29, N-(2-Fluoro-4-morpholinophenyl)-1-iso-propyl-1H-[1,2,3]triazolo[4,5-h]quinazo-lin-8-amine], the IC50 on CDK4/cyclin D3, on CDK6/cyclin D3 and at CDK2/cyclin A2 was 0.05 to 0.1 µM each time.
Take `CC(C)n1nnc2ccc3cnc(Nc4ccc(N5CCNCC5)cc4F)nc3c21` [Compound I-28, N-(2-Fluoro-4-(piperazin-1-yl)phenyl)-1-isopropyl-1H-[1,2,3]triazolo[4,5-h]quin-azolin-8-amine hydrochloride]: the IC50 on CDK4/cyclin D3, at CDK6/cyclin D3 and on CDK2/cyclin A2 was < 0.01 µM each time.
Regarding `CC(C)n1nnc2ccc3cnc(Nc4ccc(N5CCN(C)CC5)c(F)c4)nc3c21` [Compound I-33, N-(3-Fluoro-4-(4-methylpiperazin-1-yl)phenyl)-1-isopropyl-1H-[1,2,3]triazolo[4,5-h]quinazolin-8-amine], the IC50 at CDK4/cyclin D3, at CDK6/cyclin D3 and at CDK2/cyclin A2 was < 0.01 µM throughout.
For the compound `CC(C)n1nnc2ccc3cnc(Nc4ccc(N5CCOCC5)c(F)c4)nc3c21` [Compound I-35, N-(3-Fluoro-4-morpholinophenyl)-1-iso-propyl-1H-[1,2,3]triazolo[4,5-h]quinazo-lin-8-amine hydrochloride], the half-maximal inhibitory concentration (IC50) at CDK4/cyclin D3, on CDK6/cyclin D3 and on CDK2/cyclin A2 was 0.01 to 0.05 µM throughout.
For `CC(C)n1nnc2ccc3cnc(Nc4ccc(N(CCN5CCOCC5)S(C)(=O)=O)cc4)nc3c21` [Compound I-37, N-(4-((1-Isopropyl-1H-[1,2,3]triazolo[4,5-h]quinazolin-8-yl)amino)phenyl)-N-(2-morpholinoethyl)methanesulfonamide], the IC50 at CDK4/cyclin D3, at CDK6/cyclin D3 and at CDK2/cyclin A2 was < 0.01 µM each time.
Take `CC(C)n1nnc2ccc3cnc(Nc4ccc(N5CCNCC5)cc4)nc3c21` [Compound I-24, 1-isopropyl-N-(4-(piperazin-1-yl)phenyl)-1H-[1,2,3]triazolo[4,5-h]quinazolin-8-amine hydrochloride]: the IC50 at CDK4/cyclin D3, on CDK6/cyclin D3 and on CDK2/cyclin A2 was < 0.01 µM each time.
Consider `CC(C)n1nnc2ccc3cnc(Nc4ccc(N5CCN(C)CC5)cn4)nc3c21` [Compound I-4, 1-Isopropyl-N-(5-(4-methylpiperazin-1-yl)pyridin-2-yl)-1H-[1,2,3]triazolo[4,5-h]quinazolin-8-amine hydrochloride], for which the IC50 on CDK4/cyclin D3 and at CDK6/cyclin D3 was < 0.01 µM throughout.
